Measurements published in ChEMBL document CHEMBL4251603, “Structure-activity studies on N-Substituted tranylcypromine derivatives lead to selective inhibitors of lysine specific demethylase 1 (LSD1) and potent inducers of leukemic cell differentiation” (Eur J Med Chem, 2018).
Each block holds one molecule with its values, some of them ahead of it. Activity calls are given as the source filed them. The calls are words filed in the database; no cut-off is given here.

How the values were obtained:
MAO-A [1] = target: T1, MAO-A (Homo sapiens, UniProt P21397); experiment: Inhibition of MAO-A (unknown origin) at 1 uM using beetle luciferin derived luminogenic substrate preincubated for 15 mins followed by substrate addition measured after 60 mins by MAO-Glo assay relative to control; conditions: MAO-A enzyme (unknown origin), probe beetle luciferin derived luminogenic substrate
T1 sequence (P21397 whole entry): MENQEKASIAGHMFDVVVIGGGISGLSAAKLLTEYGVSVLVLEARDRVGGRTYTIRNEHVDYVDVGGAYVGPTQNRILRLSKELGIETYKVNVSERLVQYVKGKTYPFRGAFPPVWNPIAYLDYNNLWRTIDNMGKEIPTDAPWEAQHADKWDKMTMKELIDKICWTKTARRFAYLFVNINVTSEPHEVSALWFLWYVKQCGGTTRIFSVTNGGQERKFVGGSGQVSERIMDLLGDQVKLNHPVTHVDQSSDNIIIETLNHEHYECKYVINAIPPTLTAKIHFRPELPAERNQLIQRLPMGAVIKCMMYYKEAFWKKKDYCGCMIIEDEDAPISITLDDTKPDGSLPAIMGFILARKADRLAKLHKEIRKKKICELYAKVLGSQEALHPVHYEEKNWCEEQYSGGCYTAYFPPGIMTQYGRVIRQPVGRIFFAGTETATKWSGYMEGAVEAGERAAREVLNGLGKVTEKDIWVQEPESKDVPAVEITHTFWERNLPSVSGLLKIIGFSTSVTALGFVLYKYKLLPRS

MAO-B [2] = target: T2, MAO-B (Homo sapiens, UniProt P27338); experiment: (§1) Inhibition of MAO-B (unknown origin) at 10 uM using beetle luciferin derived luminogenic substrate preincubated for 15 mins followed by substrate addition measured after 60 mins by MAO-Glo assay relative to control; conditions: MAO-B enzyme (unknown origin), probe beetle luciferin derived luminogenic substrate
T2 sequence (P27338 whole entry): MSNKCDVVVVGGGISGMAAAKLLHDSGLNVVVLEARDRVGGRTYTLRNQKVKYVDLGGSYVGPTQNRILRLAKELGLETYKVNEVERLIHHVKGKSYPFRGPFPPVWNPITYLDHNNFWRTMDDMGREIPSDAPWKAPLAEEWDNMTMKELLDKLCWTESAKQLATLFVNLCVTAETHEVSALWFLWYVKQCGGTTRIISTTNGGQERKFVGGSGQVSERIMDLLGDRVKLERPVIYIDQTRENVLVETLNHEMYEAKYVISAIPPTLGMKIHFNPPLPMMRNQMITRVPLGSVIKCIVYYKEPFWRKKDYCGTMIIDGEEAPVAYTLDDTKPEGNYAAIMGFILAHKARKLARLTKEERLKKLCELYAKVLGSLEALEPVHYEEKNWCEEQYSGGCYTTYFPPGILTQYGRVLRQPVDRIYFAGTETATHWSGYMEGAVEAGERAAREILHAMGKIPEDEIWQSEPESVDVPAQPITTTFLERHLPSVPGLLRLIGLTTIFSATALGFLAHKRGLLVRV

MAO-A [3] = target: T1, MAO-A; experiment: in vitro; conditions: MAO-A enzyme (unknown origin), probe beetle luciferin derived luminogenic substrate
[4] = target: T3, Amine oxidase [flavin-containing] B (Homo sapiens, UniProt P27338); experiment: as §1; conditions: 1 h, 10 µM
T3 sequence (P27338 whole entry): T2 sequence (P27338 whole entry)

[5] = target: Lysine-specific histone demethylase 1A (Homo sapiens, UniProt O60341); conditions: 100 uM
MAO-B [6] = target: T2, MAO-B; experiment: in vitro; conditions: MAO-B enzyme (unknown origin), probe beetle luciferin derived luminogenic substrate
[7] = target: T4, Amine oxidase [flavin-containing] A (Homo sapiens, UniProt P21397)
T4 sequence (P21397 whole entry): T1 sequence (P21397 whole entry)

[8] = target: T3, Amine oxidase [flavin-containing] B; experiment: Inhibition of MAO-B (unknown origin) using beetle luciferin derived luminogenic substrate preincubated for 15 mins followed by substrate addition measured after 60 mins by MAO-Glo assay
[9] = target: Lysine-specific histone demethylase 1A (Mus musculus) (UniProt Q6ZQ88); experiment: Inhibition of LSD1 in mouse Hoxa9/Meis1 transformed progenitor cells assessed as induction of granulocytic differentiation at 50 to 100 nM up to 96 hrs by pappenheim staining based assay
THP-1 = experiment: Inhibition of colony formation in human THP1 cells at 0.5 uM after […] by light microscopic method relative to control; assay type: functional
[10] = target: Lysine-specific histone demethylase 1A (Mus musculus) (UniProt Q6ZQ88); experiment: Inhibition of LSD1 in mouse Hoxa9/Meis1 transformed progenitor cells assessed as reduction in c-Kit positive cells at 100 nM after 96 hrs by flow cytometry; assay type: cell-based

- inhibition at 1 h, 1 µM (MAO-A [1]): 27%
SMILES: O=[N+]([O-])c1ccc(N[C@H]2C[C@@H]2c2ccccc2)o1 (relative stereo)

SMILES: Fc1ccccc1CN[C@H]1C[C@@H]1c1ccccc1 (relative stereo)
- inhibition at 1 h, 10 µM (MAO-B [2]): 16%
- inhibition at 1 h, 10 µM (MAO-A [3]): 20%

SMILES: COc1ccc(CN[C@H]2C[C@@H]2c2ccccc2)cc1OC (relative stereo)
- inhibition (INH) [4]: Not Active
- inhibition at 1 h, 10 µM (MAO-A [3]): 69%

SMILES: C[C@@H]1[C@@H](N)[C@H]1c1ccccc1.Cl (relative stereo)
- inhibition (INH) [4]: Not Active
- inhibition [5]: inactive

- inhibition at 1 h, 1 µM (MAO-A [1]): 100%
- inhibition at 1 h, 1 µM (MAO-B [6]): 32%
SMILES: Brc1ccc(COc2cccc(CN[C@H]3C[C@@H]3c3ccccc3)c2)cc1 (relative stereo)

SMILES: C[C@H]1[C@@H](N)[C@H]1c1ccccc1.Cl (relative stereo)
- inhibition (INH) [4]: Not Active
- inhibition [5]: inactive

- IC50 [7]: 0.78 µM
- inhibition [5]: inactive
- IC50 [8]: 56.2 µM
SMILES: C[C@@H]1[C@H](NCc2ccc(Cl)cc2Cl)[C@H]1c1ccccc1 (relative stereo)

SMILES: O=[N+]([O-])c1cc(CN[C@H]2C[C@@H]2c2ccccc2)ccc1Cl (relative stereo)
- inhibition at 1 h, 10 µM (MAO-B [2]): 13%
- inhibition at 1 h, 10 µM (MAO-A [3]): 100%

SMILES: C[C@@H]1[C@H](N)[C@H]1c1ccccc1.Cl (relative stereo)
- inhibition (INH) [4]: Not Active
- inhibition [5]: inactive

SMILES: COc1ccc(CN[C@H]2C[C@@H]2c2ccccc2)cc1 (relative stereo)
- inhibition at 1 h, 1 µM (MAO-A [1]): 30%

- inhibition at 1 h, 1 µM (MAO-A [1]): 93%
- inhibition at 1 h, 1 µM (MAO-B [6]): 52%
SMILES: c1ccc(COc2ccc(CN[C@H]3C[C@@H]3c3ccccc3)cc2)cc1 (relative stereo)

SMILES: Clc1ccc(CN[C@H]2C[C@@H]2c2ccccc2)c(Cl)c1 (relative stereo)
- inhibition at 1 h, 10 µM (MAO-B [2]): 11%
- inhibition at 1 h, 10 µM (MAO-A [3]): 73%

SMILES: Cc1ccc(CN[C@H]2C[C@@H]2c2ccccc2)cc1Cl (relative stereo)
- inhibition at 1 h, 1 µM (MAO-A [1]): 69%

SMILES: COc1ccccc1CN[C@H]1C[C@@H]1c1ccccc1 (relative stereo)
- inhibition at 1 h, 10 µM (MAO-B [2]): 36%

SMILES: Clc1cc(Cl)cc(CN[C@H]2C[C@@H]2c2ccccc2)c1 (relative stereo)
- inhibition at 1 h, 1 µM (MAO-A [1]): 30%
- inhibition at 1 h, 1 µM (MAO-B [6]): 17%

SMILES: CN(C)c1ccc(CN[C@H]2C[C@@H]2c2ccccc2)cc1 (relative stereo)
- inhibition at 1 h, 1 µM (MAO-A [1]): 30%

SMILES: Fc1cccc(CN[C@H]2C[C@@H]2c2ccccc2)c1 (relative stereo)
- inhibition at 1 h, 10 µM (MAO-B [2]): 20%
- inhibition at 1 h, 10 µM (MAO-A [3]): 69%

SMILES: Brc1ccc(CN[C@H]2C[C@@H]2c2ccccc2)cc1 (relative stereo)
- inhibition at 1 h, 10 µM (MAO-B [2]): 27%
- inhibition at 1 h, 10 µM (MAO-A [3]): 43%

- IC50 [7]: 27.9 µM
- IC50 [8]: 95.7 µM
SMILES: NC(=O)c1cccc(CN[C@H]2C[C@@H]2c2ccccc2)c1 (relative stereo)

SMILES: Brc1ccccc1CN[C@H]1C[C@@H]1c1ccccc1 (relative stereo)
- inhibition at 1 h, 10 µM (MAO-B [2]): 24%
- inhibition at 1 h, 10 µM (MAO-A [3]): 47%

- inhibition at 1 h, 1 µM (MAO-A [1]): 94%
- inhibition at 1 h, 1 µM (MAO-B [6]): 79%
SMILES: O=[N+]([O-])c1ccc(N[C@H]2C[C@@H]2c2ccccc2)s1 (relative stereo)

SMILES: Clc1ccc(CN[C@H]2C[C@@H]2c2ccccc2)cc1 (relative stereo)
- inhibition [9]: Active
- IC50 [7]: 0.206 µM
- inhibition at 0.5 µM (THP-1): 80%
- inhibition [10]: Active
- IC50 [8]: 14.1 µM

- inhibition (INH) [4]: Not Active
SMILES: c1ccc([C@H]2C[C@@H]2NCc2cccnc2)cc1 (relative stereo)

SMILES: c1ccc(CN[C@H]2C[C@@H]2c2ccccc2)cc1 (relative stereo)
- inhibition at 1 h, 10 µM (MAO-B [2]): 33%
- IC50 [7]: 5.7 µM
